Bridges are numbered along the chain shown (N, C = ends). Where no end group is shown, it is not given here.
Tested on: HIV-1 R5 strains from clades C and D
Experiment: Inhibition of HIV-1 transcytosis across HEC-1 cell line with cyclized CDR3
Format: cell-based
Conditions: cells preincubated 30 minutes at 17° C. with peptide; linear CDR3 as control

How did the inhibition of transcytosis turn out when “cyclized CDR3 derived from Fab clone 43: CDR3 of clone 43 H chain (SEQ ID NO:1) with flanking residues, cyclized by disulfide bridge, SEQ ID NO:12 (CARDPRYYDAWSGPQLYYYYMDVWCKG; disulfide 1-25; listed as Homo Sapiens)” was run?
Its inhibition of transcytosis is “more than 50%”.

Reference: patent publication US20090191216A1, “Antibody or a fragment thereof, having neutralizing activity against HIV” (priority 2005, published 2009)
